Data on 18 compounds can be found in patent EP3800188A1, “SUBSTITUTED PYRAZOLOPYRIMIDINES AS IRAK4 INHIBITORS” (Bayer AG, priority 2019, dated 2021).

Molecules are shown by their SMILES.

For one data set, the target named is T1, human IRAK4 (Homo sapiens, UniProt Q9NWZ3).
T1 construct: GST (N); made in house; host or cells: baculovirus-infected Hi5 (BTI-TN-5B1-4) insect cells
T1 sequence (Q9NWZ3 1-460): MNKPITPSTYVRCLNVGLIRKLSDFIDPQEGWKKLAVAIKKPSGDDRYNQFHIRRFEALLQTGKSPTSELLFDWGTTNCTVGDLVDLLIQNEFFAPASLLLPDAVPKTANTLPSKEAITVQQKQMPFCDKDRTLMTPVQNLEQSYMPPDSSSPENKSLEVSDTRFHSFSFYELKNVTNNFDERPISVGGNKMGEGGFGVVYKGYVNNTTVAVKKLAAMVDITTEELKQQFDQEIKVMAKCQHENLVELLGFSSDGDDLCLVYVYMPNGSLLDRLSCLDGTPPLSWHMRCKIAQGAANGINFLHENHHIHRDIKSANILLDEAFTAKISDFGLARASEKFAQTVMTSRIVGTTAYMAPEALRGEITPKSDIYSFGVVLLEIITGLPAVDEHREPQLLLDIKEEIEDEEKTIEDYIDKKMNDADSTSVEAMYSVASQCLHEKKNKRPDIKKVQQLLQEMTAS
The data set is described as follows: Human IRAK4 kinase activity inhibition assay (IRAK4 TR-FRET assay). The note with it: 1 mM ATP, GST-human IRAK4, average or median values. Format: biochemical. The gist of the method: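 GST-IRAK4 from insect cells (about 0.2 nM, linear range) was preincubated 15 min with compound (11 concentrations, 20 µM–0.073 nM) in HEPES pH 7.5 with MgCl2 and DTT before kinase reaction on a biotinylated peptide. Phosphopeptide was detected by TR-FRET (Eu anti-mouse-IgG/anti-phosphoserine/streptavidin-XL665, 1 h at 22°C) as the 665/620 nm ratio, normalized to no-compound and no-enzyme controls.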
On the technique in general: Time-resolved FRET reads energy transfer from a long-lived donor to a nearby acceptor.

Data set [1] is described as follows: Metabolic stability in human liver microsomes. The conditions noted are these: 1 µM compound; for CLblood, human microsomes: hepatic in vivo blood clearance calculated with well stirred liver model, '(stable)' given beside < 0.01; for Fmax, human microsomes: maximal oral bioavailability calculated with well stirred liver model, 0.5 mg/mL protein, '(stable)' given beside 100.

Usually IC50 stands for the concentration at which inhibition is half-maximal. At human IRAK4, `CC1(N2CCOCC2)CN(c2nc(N[C@H]3C[C@H](S(C)(=O)=O)C3)nc3c2cnn3-c2cccc(C(F)(F)F)c2)C1` [Example I-59, 4-[3-methyl-3-(morpholin-4-yl)azetidin-1-yl]-N-[trans-3-(methylsulfonyl)cyclobutyl]-1-[3-(trifluoromethyl)phenyl]-1H-pyrazolo[3,4-d]pyrimidin-6-amine] came in with an IC50 of 3.63 nM. In addition, in data set [1], the “CLblood, human microsomes” value is on record as 0.34 L/h/kg and the “Fmax, human microsomes” value was 74%.
For `CN1CC[C@H](Nc2nc(N3C[C@@H](O)[C@H](O)C3)c3cnn(-c4cccc(C(F)(F)F)c4)c3n2)C1` [Example I-31, (3R,4R)-1-(6-{[(3S)-1-methylpyrrolidin-3-yl]amino}-1-[3-(trifluoromethyl)phenyl]-1H-pyrazolo[3,4-d]pyrimidin-4-yl)pyrrolidine-3,4-diol] the same measures were 12.6 nM, < 0.01 (stable) L/h/kg and 100 (stable) %.
The like results for `CC(C)(O)CC1CN(c2nc(N[C@H]3C[C@H](S(C)(=O)=O)C3)nc3c2cnn3-c2cccc(C(F)(F)F)c2)C1` [Example I-67, 2-methyl-1-[1-(6-{[trans-3-(methylsulfonyl)cyclobutyl]amino}-1-[3-(trifluoromethyl)-phenyl]-1H-pyrazolo[3,4-d]pyrimidin-4-yl)azetidin-3-yl]propan-2-ol] were, in that order, 5.33 nM, 0.24 L/h/kg and 82%.
The like results for `CS(=O)(=O)N1CC(Nc2nc(N3CCC(C4(N)CC4)CC3)c3cnn(-c4cccc(C(F)F)c4)c3n2)C1` [II-20, 4-[4-(1-aminocyclopropyl)piperidin-1-yl]-1-[3-(difluoromethyl)phenyl]-N-[1-(methylsulfonyl)azetidin-3-yl]-1H-pyrazolo[3,4-d]pyrimidin-6-amine] were, in that order, 1.39 nM, 0.04 L/h/kg and 97%.
On human IRAK4, `O[C@@H]1CN(c2nc(N[C@H]3C[C@@H](O)C3)nc3c2cnn3-c2cccc(C(F)(F)F)c2)C[C@H]1F` [Example I-89, (3R,4R)-4-fluoro-1-(6-{[(1s,3S)-3-hydroxycyclobutyl]amino}-1-[3-(trifluoromethyl)-phenyl]-1H-pyrazolo[3,4-d]pyrimidin-4-yl)pyrrolidin-3-ol] gave a half-maximal inhibitory concentration (IC50) of 4.72 nM. Also, in data set [1], the “CLblood, human microsomes” value is reported as 0.37 L/h/kg and the “Fmax, human microsomes” value was 72%.
For `O[C@@H]1CN(c2nc(N[C@H]3C[C@H](O)C3)nc3c2cnn3-c2cccc(C(F)(F)F)c2)C[C@H]1F` [Example I-88, (3R,4R)-4-fluoro-1-(6-{[(1r,3R)-3-hydroxycyclobutyl]amino}-1-[3-(trifluoromethyl)-phenyl]-1H-pyrazolo[3,4-d]pyrimidin-4-yl)pyrrolidin-3-ol] the same measures were 3.94 nM, 0.57 L/h/kg and 57%.
The like results for `OC1(CN2CCCC2)CCN(c2nc(N[C@H]3C[C@@H](O)C3)nc3c2cnn3-c2cccc(C(F)(F)F)c2)CC1` [Example I-114, 1-{6-[(cis-3-hydroxycyclobutyl)amino]-1-[3-(trifluoromethyl)phenyl]-1H-pyrazolo[3,4-d]pyrimidin-4-yl}-4-(pyrrolidin-1-ylmethyl)piperidin-4-ol] were, in that order, 8.49 nM, 0.21 L/h/kg and 84%.
The like results for `O=C1CCCN1C1CN(c2nc(N[C@H]3C[C@@H](O)C3)nc3c2cnn3-c2cccc(C(F)(F)F)c2)C1` [Example I-112, 1-(1-{6-[(cis-3-hydroxycyclobutyl)amino]-1-[3-(trifluoromethyl)phenyl]-1H-pyrazolo[3,4-d]pyrimidin-4-yl}azetidin-3-yl)pyrrolidin-2-one] were, in that order, 3.24 nM, 0.39 L/h/kg and 71%.
The compound `CC(C)(O)C1CCN(c2nc(N[C@@H]3CCOC3)nc3c2cnn3-c2cccc(C(F)(F)F)c2)CC1` [Example I-16-2, 2-(1-{6-[(3R)-tetrahydrofuran-3-ylamino]-1-[3-(trifluoromethyl)phenyl]-1H-pyrazolo[3,4-d]pyrimidin-4-yl}piperidin-4-yl)propan-2-ol] returned an IC50 against human IRAK4 of 16.1 nM. Further, in data set [1], the “CLblood, human microsomes” value is reported as 0.92 L/h/kg and the “Fmax, human microsomes” value is 30%.
For `O[C@H]1C[C@H](Nc2nc(N3CC(N4CCOCC4)C3)c3cnn(-c4cccc(C(F)(F)F)c4)c3n2)C1` [Example I-74, trans-3-({4-[3-(morpholin-4-yl)azetidin-1-yl]-1-[3-(trifluoromethyl)phenyl]-1H-pyrazolo-[3,4-d]pyrimidin-6-yl}amino)cyclobutanol] the same measures were 4.83 nM, 0.11 L/h/kg and 91%.
For `NC1(C2CCN(c3nc(N[C@@H]4CNC(=O)C4)nc4c3cnn4-c3cccc(C(F)(F)F)c3)CC2)CC1` [Example I-48, (4S)-4-({4-[4-(1-aminocyclopropyl)piperidin-1-yl]-1-[3-(trifluoromethyl)phenyl]-1H-pyrazolo[3,4-d]pyrimidin-6-yl}amino)pyrrolidin-2-one] the same measures were 1.12 nM, < 0.01 (stable) L/h/kg and 100 (stable) %.
The like results for `CC1(O)CCN(C2CN(c3nc(N[C@H]4C[C@H](O)C4)nc4c3cnn4-c3cccc(C(F)(F)F)c3)C2)CC1` [Example I-79, 1-(1-{6-[(trans-3-hydroxycyclobutyl)amino]-1-[3-(trifluoromethyl)phenyl]-1H-pyrazolo-[3,4-d]pyrimidin-4-yl}azetidin-3-yl)-4-methylpiperidin-4-ol] were, in that order, 7.75 nM, 0.41 L/h/kg and 69%.
The compound `O=S1(=O)CC[C@@H](Nc2nc(N3CC(N4CCOCC4)C3)c3cnn(-c4cccc(C(F)(F)F)c4)c3n2)C1` [Example I-22, N-[(3R)-1,1-dioxidotetrahydrothiophen-3-yl]-4-[3-(morpholin-4-yl)azetidin-1-yl]-1-[3-(trifluoromethyl)phenyl]-1H-pyrazolo[3,4-d]pyrimidin-6-amine] showed an IC50 at human IRAK4 of 99.3 nM. Also, in data set [1], the “CLblood, human microsomes” value is 0.34 L/h/kg and the “Fmax, human microsomes” value is recorded as 74%.
For `CCS(=O)(=O)N1CC(Nc2nc(N3CCC(C(C)(C)O)CC3)c3cnn(-c4cccc(C(F)F)c4)c3n2)C1` [II-31, 2-[1-(1-[3-(difluoromethyl)phenyl]-6-{[1-(ethylsulfonyl)azetidin-3-yl]amino}-1H-pyrazolo[3,4-d]pyrimidin-4-yl)piperidin-4-yl]propan-2-ol] the same measures were 9.22 nM, 0.29 L/h/kg and 78%.
For `CS(=O)(=O)[C@H]1C[C@H](Nc2nc(N3C[C@H](O)[C@@H](F)C3)c3cnn(-c4cccc(C(F)F)c4)c3n2)C1` [II-16-2, (3S,4S)-1-(1-[3-(difluoromethyl)phenyl]-6-{[trans-3-(methanesulfonyl)cyclobutyl]amino}-1H-pyrazolo[3,4-d]pyrimidin-4-yl)-4-fluoropyrrolidin-3-ol] the same measures were 2.82 nM, < 0.01 (stable) L/h/kg and 100 (stable) %.
The like results for `CS(=O)(=O)[C@H]1C[C@H](Nc2nc(N3C[C@@H](O)[C@H](F)C3)c3cnn(-c4cccc(C(F)(F)F)c4)c3n2)C1` [Example I-86, (3R,4R)-4-fluoro-1-(6-{[(1r,3R)-3-(methylsulfonyl)cyclobutyl]amino}-1-[3-(trifluoromethyl)phenyl]-1H-pyrazolo[3,4-d]pyrimidin-4-yl)pyrrolidin-3-ol] were, in that order, 3.66 nM, 0.25 L/h/kg and 81%.
As for `CC(C)(N)C1CCN(c2nc(NC3CCS(=O)(=O)CC3)nc3c2cnn3-c2cccc(C(F)(F)F)c2)CC1` [Example I-46, 4-[4-(2-aminopropan-2-yl)piperidin-1-yl]-N-(1,1-dioxidotetrahydro-2H-thiopyran-4-yl)-1-[3-(trifluoromethyl)phenyl]-1H-pyrazolo[3,4-d]pyrimidin-6-amine], it took 1.4 nM to reach half-maximal inhibition against human IRAK4 (IC50). Besides, in data set [1], the “CLblood, human microsomes” value is reported as 0.25 L/h/kg and the “Fmax, human microsomes” value was 81%.
`O=S1(=O)CCC(Nc2nc(N3CC(CN4CCOCC4)C3)c3cnn(-c4cccc(C(F)(F)F)c4)c3n2)CC1` [Example I-60, N-(1,1-dioxidotetrahydro-2H-thiopyran-4-yl)-4-[3-(morpholin-4-ylmethyl)azetidin-1-yl]-1-[3-(trifluoromethyl)phenyl]-1H-pyrazolo[3,4-d]pyrimidin-6-amine] yielded an IC50 on human IRAK4 of 34.2 nM. For the same compound, in data set [1], the “CLblood, human microsomes” value is listed as 0.37 L/h/kg and the “Fmax, human microsomes” value is recorded as 72%.
